Test results published in US11773086B2, “Fungal modulators” (TRUSTEES OF BOSTON UNIVERSITY, priority 2020, dated 2023).

Experiments:
[1] = system: FLC-resistant Candida auris; test: Checkerboard (dose-response matrix) with fluconazole, FICI; assay type: cell-based
Experimental: Generally, the synergy is measured by determining the fractional inhibitory concentration (FIC) value of the combination. […] FIC values for both agents in a particular square/well are calculated in this way followed by determination of the FIC index (sum of the FICs of each agent in the particular square/well).
Compound potency was assessed alone by dose response assays or in combination with another compound by dose-response matrixes in 96-well plates, or 384-well, flat-bottom, microtiter plates (Corning) as previously described. Plates were incubated at 30° C. for the indicated time period. Growth was quantified by measuring OD600 and corrected for medium background. All strains were assessed in biological duplicate experiments with technical duplicates. Growth was normalized to untreated controls and plotted as a heat map using Java TreeView 1.1.6r4. For dose-response matrixes fractional inhibitory concentration index at 90% growth inhibition (FICI90) was calculated as previously described. The fluconazole Etest susceptibility assay was performed as previously described. Briefly, 200 μL of 5×10^6 cells/mL were plated on YPD agar (1%) plates with either with 50 μM azoffluxin or containing DMSO.

[2] = system: C. albicans (SN95); test: Azoffluxin dose-response with background fluconazole; assay type: cell-based, Candida albicans; details: fluconazole-sensitive laboratory strain SN95, background FLC 4 μg/mL
Experimental: (§1) FIGS. 2A-2E illustrate the above-described screening of the BU-CMD which identified azoffluxin as a fluconazole (FLC) potentiator against C. auris. […] Growth, as determined by optical density at 600 nm (OD600), is plotted in the presence of each CMD compound alone on the y-axis and in combination with FLC on the x-axis. Dotted lines represent 7-median absolute deviations from the median for each condition. […] FIG. 2B depicts the synergistic interactions. […] Growth was measured by the OD600 and normalized to the no drug control (see color bar). The fractional inhibitory concentration index (FICI) was calculated to determine the chemical interaction, with a value below 0.5 indicating synergy. […] FIG. 2D depicts FLC Etest strips in the presence and absence of 50 μM azoffluxin. […]
(§2) Compound potency was assessed alone by dose response assays or in combination with another compound by dose-response matrixes in 96-well plates, or 384-well, flat-bottom, microtiter plates (Corning) as previously described. […] Growth was quantified by measuring OD600 and corrected for medium background. All strains were assessed in biological duplicate experiments with technical duplicates. […] For dose-response matrixes fractional inhibitory concentration index at 90% growth inhibition (FICI90) was calculated as previously described. […]

[3] = system: C. glabrata (BG2); test: as above; assay type: cell-based, Candida glabrata
Experimental: as §1, §2

[4] = system: Saccharomyces cerevisiae (BY4741); test: as above; assay type: cell-based; details: fluconazole-sensitive laboratory strain BY4741, background FLC 0.5 μg/mL
Experimental: as §1, §2

[5] = system: 293T cells; test: 293T cells grown without C. auris (luciferase signal); assay type: cell-based, human; details: 293T cells without C. auris, any treatment condition
Experimental: FIG. 10A depicts mammalian embryonic kidney (293T) cells expressing luciferase used to quantify mammalian cell growth in co-culture. Mammalian cells were seeded in 384-well plates in DMEM medium at 5×10^5 cells/mL overnight. After 24 hours the indicated concentration of compound (⋅ indicates combo treatment concentrations) was added along with 2.5×10^3 cells/mL of C. auris. Co-cultures were incubated for 48 hours at 37° C. and then the luminescence was measured as an output of mammalian cell growth. Error represents standard deviation between technical quadruplicates, (***) indicates a p-value<0.001 between 293T cells alone and co-culture growth for each condition. […] FIG. 10C depicts checkerboard assays performed as described in FIG. 2B with C. auris Clade IV isolate B11801. Relative growth was measured after 24 hours using OD600 and normalized to no-drug control wells (see color bar). The FICI calculated for each checkerboard is shown in the top right of each plot, with values<0.5 indicating synergy. FIG. 10D depicts kidney fungal burden (CFU) in mice from each treatment group (n=3) that had been infected with C. auris B11801. […] The significance of differences between combination treatment and treatment with each compound alone was determined by two-tailed unpaired student t-test, (***) p-value<0.001. […]

[6] = Stability and activity in plasma; assay type: in vitro ADME
[7] = Single dose plasma pharmacokinetic profile; assay type: in vivo, mice; details: mouse

**Q.** Which results are given for `C=C(C)C[C@@H](O)COc1cc2c(cc1C1(c3cc4c(cc3OC[C@H](O)CC(=C)C)OCO4)C(=O)Nc3cc(F)ccc31)OCO2` [CMLD012336]?
**A.** interaction with fluconazole ([1]; Clade III isolate B12037 lacking Erg11 V125A/F126L and Mrr1 N647T): potent synergistic interaction; fractional inhibitory concentration index (FICI) ([1]; combination with fluconazole, C. auris Ci6684 (Erg11 Y132F), <0.5 = synergy): 0.25; FICI ([1]; fractional inhibitory concentration index for enhancement of FLC activity in FLC-resistant Candida auris, <0.5 strong synergy, 2 = no synergy): 0.130; potentiation of fluconazole across C. auris clades ([1]; isolates of the four major clades, Clade III the exception): potentiated fluconazole in multiple isolates from three of the four major clades; enhancement of fluconazole activity [2]: did not enhance the activity of fluconazole; enhancement of fluconazole efficacy ([3]; C. glabrata, despite increasing Nile red): did not enhance the efficacy of fluconazole; enhancement of fluconazole activity ([3]; fluconazole-sensitive laboratory strain BG2, background FLC 0.25 μg/mL): did not enhance the activity of fluconazole; enhancement of fluconazole activity [4]: did not enhance the activity of fluconazole; mammalian cytotoxicity [5]: no detectable mammalian cytotoxicity; stability in plasma [6]: stable and retains activity in plasma; half-life [7]: 2.6 h
